Earlier results in patent publication US20190021382A1, “LONG-LASTING SWEETENER FORMULATIONS” (WM. WRIGLEY JR. COMPANY, priority 2016, published 2019).

Conditions: relative to sugar

SMILES: C=C1C[C@@]23CC[C@H]4[C@@](C)(CCC[C@@]4(C)C(=O)O[C@@H]4O[C@H](CO)[C@@H](O)[C@H](O)[C@H]4O)[C@@H]2CC[C@]1(O[C@@H]1O[C@H](CO)[C@@H](O)[C@H](O[C@@H]2O[C@H](CO)[C@@H](O)[C@H](O)[C@H]2O)[C@H]1O[C@@H]1O[C@H](CO)[C@@H](O)[C@H](O)[C@H]1O)C3 [Rebaudioside A, rebaudioside A]
- times sweeter than sugar: 200 times
